Read-outs that look alike come from different tables or passages of the source.
Assay: Measurement of 1-octanol/water partition coefficient (shake flask method)
Format: physicochemical
Experimental: The 1-octanol/water partition coefficient of the diethylene glycol isopropyl ether was measured by a shake flask method prescribed in JIS Z7260-107.
First, 10 g of ion-exchanged water and 10 g of 1-octanol were charged into a 50 mL separating funnel, and shaken at 25° C. to establish an equilibrium therebetween. Then, 1 g of diethylene glycol isopropyl ether was charged into the separating funnel, and the contents of the separating funnel were intimately shaken and subjected to centrifugal separation to separate the mixture into a 1-octanol phase and a water phase. The amounts of the diethylene glycol isopropyl ether dissolved in the respective phases were quantitatively determined by gas chromatography, thereby obtaining a partition coefficient of the diethylene glycol isopropyl ether between the two phases. The log P vale was determined as a common logarithm of the partition coefficient.
The same measurement procedure as in the above item (i) was repeated except for using a solvent to be measured in place of the diethylene glycol isopropyl ether (c1), thereby obtaining a 1-octanol/water partition coefficient of the solvent.

[1] = 1-octanol/water, shake flask method JIS Z7260-107, 25° C., log P as common logarithm, read-out: 1-octanol/water partition coefficient
[2] = shake flask method JIS Z7260-107, 25° C., log P as common logarithm
[3] = shake flask method JIS Z7260-107, 25° C., log P as common logarithm, read-out: 1-octanol/water partition coefficient

Row | SMILES | logP | logP [1] | 1-octanol/water partition coefficient | 1-octanol/water partition coefficient [2] | logP [3]
1 | O=C1CCCN1 [2-pyrrolidone] | -0.63 |  |  |  | 
2 | OCCOCCOCCO [triethylene glycol] | -1.45 |  | Triethylene glycol (−1.45) |  | 
3 | COCCOCCO [diethylene glycol monomethyl ether, Diethylene glycol monomethyl ether] |  |  |  | DEGME (−0.85) | -0.85
4 | CCCCOCCOCCO [Diethylene glycol monobutyl ether] |  |  | ether (0.7) |  | 
5 | OCCOCCO [diethylene glycol] |  |  |  | Diethylene glycol (−1.39) | -1.39

More lines, main results first:

Row | logP | logP [1] | 1-octanol/water partition coefficient | SMILES | 1-octanol/water partition coefficient [2] | logP [3]
6 |  | -0.31 |  | CCOCCOCCO [diethylene glycol monoethyl ether, Diethylene glycol monoethyl ether] | DEGEE (−0.31) | 
7 |  | 0.04 |  | CC(C)OCCOCCO [diethylene glycol isopropyl ether] | DEGPE (0.04)*^1 | 
8 | -0.95 |  | Propylene glycol (−0.95) | CC(O)CO (stereo not shown) [propylene glycol] |  | 
9 | -1.5 |  | Glycerol (≧−1.5) | OCC(O)CO [glycerol] |  | 
